Measured values as given in patent US20160185808A1, “PLATINUM DERIVATIVES FOR HYDROPHOBIC FORMULATIONS” (priority 2013, published 2016).
Values belong to the compound of their own block, whether it stands above or below them.

Columns and labels:
[1] = tested on: SKOV3 human ovary cancer cells; assay: Therapeutic efficacy in vivo against SKOV3 tumors in Nu/Nu mice
Experimental: The therapeutic efficacy of the Pt (II) complex against cancer was examined in vivo according to the following procedure, the results of which can be seen both in Table III and in graphical form in FIG. 4. To develop orthotropic tumors, 30 Nu/Nu female mice, each weighing approximately 20 g (Charles River Laboratories, Cambridge, Mass.), were injected intraperitoneally (ip) with 1×10^6 SKOV3 human ovary cancer cells (American Type Culture Collection (ATCC), Manassas, Va.) suspended in phosphate buffered saline. Animals were then dosed with nothing (control group) or test compounds. […] Cisplatin was administered to mice as a comparative sample and its effectiveness was also examined. The doses of Pt-MMA (21 mg/kg) and cis-Platin (5 mg/kg) were calculated so that animals received equivalent amounts of Pt. Dosing began 39 days after tumor injection in cells when the tumors had reached a volume of 150 mm^3-200 mm^3 measured with a ruler.
Control or platinum compound treatment was administered on the 39th, 46th, 53th, 60th, and 66th day after initial tumor injections. The survival time of each group of mice was determined and the median survival time (days) was estimated on the basis of the observed survival time of each mouse. The therapeutic effectiveness of the Pt (II) complex is represented by the median survival significance compared to control (P-Value).

[2] = Storage stability of nanoemulsion formulations; assay type: physicochemical; conditions: concentration up to 5 mg/ml, at both 4° C. and room temperature
Experimental: The poor […] of these compounds is due to the presence of a di-fatty acid structure, which causes them to be too hydrophobic. […] Nanoemulsion formulations prepared with a concentration of up to 5 mg/ml of cisplatin mono-myristate, cisplatin mono-palmitate, and cisplatin mono-stearate were stable at both 4° C. and room temperature for approximately 3 months.

[3] = cisplatin 5 mg/kg, Pt-MMA 21 mg/kg

Compound: N.N.[Cl][Pt][Cl] [Cisplatin, Cis-dichlorodiammine Pt (II)]
median survival compared to control group (in words) [1]: not significantly improved
Average Tumor Size at 21 Days ([1]; 21 days, cisplatin 5 mg/kg, Pt-MMA 21 mg/kg): 640 ± 314 mm^3
Average Tumor Starting Size ([1]; at start of dosing (day 39 after tumor injection)): 171 ± 43 mm^3
Median Survival [1, 3]: 28 days
Time for First Tumor to Reach 1000 mm^3 [1, 3]: 17 days
Median Survival Significance Compared to Control (P-Value) ([1]; compared to control group): 0.0606

Compound: CCCCCCCCCCCCCC(=O)[O][Pt]([NH2])([NH2])[Cl] [Cisplatin-mono myristate, cis-Diamine Pt (II) Chloride Monomyristic Acid]
Time nanoemulsion formulations were stable [2]: approximately 3 months

Time nanoemulsion formulations were stable [2]: approximately 3 months
Compound: cis-Diamine Pt (II) Chloride Monopalmitic Acid [Cisplatin-mono palmitate]

Time nanoemulsion formulations were stable [2]: approximately 3 months
Compound: cis-Diamine Pt (II) Chloride Monostearic Acid [Cisplatin-mono stearate]
